On the set-up of data set [1]: method as in PMID 16209439, PMID 16209439, doi:10.2478/s11696-006-0007-y. As to conditions: octan-1-ol/phosphate buffer (pH = 7.4); cited from earlier work.
A further data set has as its system M. kansasii DSM 44162. The data set is described as follows: antimycobacterial MIC, broth dilution micromethod. The class given is cell-based. As to conditions: Mycobacterium kansasii, DSM44162, 168 h, 7 days at 37 °C.
In another data set the test system is Candida krusei CCM 8271. The data set is described as follows: candidacidal MIC, microdilution method. The class given is cell-based. As to conditions: Pichia kudriavzevii, CCM8271, 48 h, 37 °C. (In general: In broth dilution the organism is exposed to a series of concentrations in liquid medium.)
Data set [2] deals with Candida parapsilosis CCM 8260. As to the kind of experiment: candidacidal MIC, microdilution method. The class given is cell-based. As to conditions: Lodderomyces parapsilosis, CCM8260, 48 h, 37 °C.
The test system of data set [3] is Candida albicans CCM 8261. As to the kind of experiment: candidacidal MIC, microdilution method. The class given is cell-based. As to conditions: Candida albicans, CCM8261, 48 h, 37 °C.
Another data set concerns M. smegmatis ATCC 700084. As to the kind of experiment: antimycobacterial MIC, broth dilution micromethod. As to conditions: Mycolicibacterium smegmatis, ATCC700084, 72 h, 3 days at 37 °C. The class given is cell-based.
Details of data set [4]: method as in PMID 16209439, PMID 16209439. As to conditions: potentiometric titration; cited from earlier work.
Data set [5] has as its system Staphylococcus aureus ATCC 29213. As to the kind of experiment: antibacterial MIC, microtitration broth method. The class given is cell-based. As to conditions: 37 °C.
The subject of data set [6] is methicillin-resistant Staphylococcus aureus 63718. The data set is described as follows: antibacterial MIC, microtitration broth method. The class given is cell-based. As to conditions: MRSA, 37 °C.
The subject of data set [7] is Enterococcus faecalis ATCC 29212. As to the kind of experiment: antibacterial MIC, microtitration broth method. The class given is cell-based. As to conditions: 37 °C.
The subject of data set [8] is Escherichia coli ATCC 25922. The data set is described as follows: antibacterial MIC, microtitration broth method. As to conditions: 37 °C. The class given is cell-based.
The test system of data set [9] is Mycobacterium avium subsp. paratuberculosis CIT03. As to the kind of experiment: antimycobacterial MIC, MB broth, alamarBlue. The class given is cell-based. As to conditions: 264 h, read-out: MIC MAP. The essentials:
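Strain grown in Middlebrook broth with OADC and mycobactin J (2 μg/mL), inoculum from McFarland No. 1 diluted 1:20. Compounds at final 1000-60 μg/mL in triplicate, 11 days at 37 °C, then alamarBlue for 24 h; MIC is lowest concentration preventing blue-to-pink change.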

In a further data set the test system is M. marinum CAMP 5644. As to the kind of experiment: antimycobacterial MIC, broth dilution micromethod. The class given is cell-based. As to conditions: Mycobacterium marinum, CAMP5644, 504 h, 21 days at 28 °C.

Consider two molecules from article PMC6273431, “The Structure–Antimicrobial Activity Relationships of a Promising Class of the Compounds Containing the N-Arylpiperazine Scaffold” (Molecules, 2016).

Where two headings read alike, the source gives them in different places.

As a reminder, the MIC is the least concentration at which growth counts as inhibited. What is called pKa is the negative logarithm of the acid dissociation constant.

With `COc1ccc(NC(=O)OCC(O)CN2CCN(c3ccc(F)cc3)CC2)cc1` (stereo not drawn) [Compound 5k], the “log Pexp” value in [1] is given as 3.42. The MIC was 291 µM in the data set with M. kansasii DSM 44162; 128 µg/mL against M. kansasii DSM 44162 (Table S3); over 291 µM in the data set with Candida krusei CCM 8271; over 128 µg/mL with Candida krusei CCM 8271 (Table S4); over 291 µM in data set [2]; over 128 µg/mL in data set [2] (Table S4). The MIC in data set [3] is over 291 µM; in data set [3] (Table S4), over 128 µg/mL; against M. smegmatis ATCC 700084, 582 µM; in the data set with M. smegmatis ATCC 700084 (Table S3), 256 µg/mL; in data set [5] (ATCC29213, 24 h), over 582 µM; in [5] (ATCC29213, Table S4, 24 h) it was over 256 µg/mL. Besides, the MIC in data set [6] (24 h) was over 582 µM; in data set [6] (Table S4, 24 h), over 256 µg/mL; in [7] (ATCC29212, 24 h), over 582 µM; in data set [7] (ATCC29212, Table S4, 24 h), over 256 µg/mL; in data set [8] (ATCC25922, 24 h), over 582 µM; in data set [8] (ATCC25922, Table S4, 24 h), over 256 µg/mL. For the same molecule, the MIC was 2270 µM in data set [9] (37 °C, 11 days); 1000 µg/mL in data set [9]; 582 µM in the data set on M. marinum CAMP 5644; 256 µg/mL against M. marinum CAMP 5644 (Table S3). In data set [4], the pKa was 7.24.

`CCOc1ccc(NC(=O)OCC(O)CN2CCN(c3ccc(F)cc3)CC2)cc1` (stereo not drawn) [Compound 5l]: the “log Pexp” value in [1] is 3.28. Also, the MIC against M. kansasii DSM 44162 was 564 µM; against M. kansasii DSM 44162 (Table S3), 256 µg/mL; in the data set on Candida krusei CCM 8271, over 282 µM; in the data set on Candida krusei CCM 8271 (Table S4), over 128 µg/mL; in data set [2] it was over 282 µM; in data set [2] (Table S4), over 128 µg/mL. For the same molecule, the MIC in data set [3] was over 282 µM; in data set [3] (Table S4), over 128 µg/mL; against M. smegmatis ATCC 700084 it was 564 µM; with M. smegmatis ATCC 700084 (Table S3) it was 256 µg/mL; in [5] (ATCC29213, 24 h), over 564 µM; in [5] (ATCC29213, Table S4, 24 h), over 256 µg/mL. Also, the MIC is over 564 µM in data set [6] (24 h); over 256 µg/mL in [6] (Table S4, 24 h); over 564 µM in data set [7] (ATCC29212, 24 h); over 256 µg/mL in [7] (ATCC29212, Table S4, 24 h); over 564 µM in data set [8] (ATCC25922, 24 h); over 256 µg/mL in data set [8] (ATCC25922, Table S4, 24 h). For the same molecule, the MIC in data set [9] (37 °C, 11 days) stood at 2200 µM; in [9] it was 1000 µg/mL; in the data set on M. marinum CAMP 5644 it was 282 µM; against M. marinum CAMP 5644 (Table S3), 128 µg/mL. Besides, the pKa in data set [4] is on record as 7.18.
